Our source for the GI50 and inhibition values is patent publication US20250120967A1, “TYROSINE KINASES INHIBITORS AND USES THEREOF” (GREAT NOVEL THERAPEUTICS BIOTECH & MEDICALS CORPORATION, priority 2023, published 2025).

Assay [1] has as its system RPMI-8226. Briefly: NCI-60 screen (SRB). In kind it is cell-based. The following applies: Homo sapiens; RPMI-8226, Leukemia. On the procedure:
(§1) The human tumor cell lines of the cancer screening panel are grown in RPMI 1640 medium containing 5% fetal bovine serum and 2 mM L-glutamine. For a typical screening experiment, cells are inoculated into 96 well microtiter plates in 100 μL at plating densities ranging from 5,000 to 40,000 cells/well depending on the doubling time of individual cell lines. After cell inoculation, the microtiter plates are incubated at 37° C., 5% CO2, 95% air and 100% relative humidity for 24 h prior to addition of experimental drugs. After 24 h, two plates of each cell line are fixed in situ with TCA, to represent a measurement of the cell population for each cell line at the time of drug addition (Tz). Experimental drugs are solubilized in dimethyl sulfoxide at 400-fold the desired final maximum test concentration and stored frozen prior to use. At the time of drug addition, an aliquot of frozen concentrate is thawed and diluted to twice the desired final maximum test concentration with complete medium containing 50 µg/ml gentamicin. An additional four, 10-fold or M log serial dilutions are made to provide a total of five drug concentrations plus control. Aliquots of 100 μl of these different drug dilutions are added to the appropriate microtiter wells already containing 100 μl of medium, resulting in the required final drug concentrations. Following drug addition, the plates are incubated for an additional 48 h at 37° C., 5% CO2, 95% air, and 100% relative humidity. For adherent cells, the assay is terminated by the addition of cold TCA. Cells are fixed in situ by the gentle addition of 50 μl of cold 50% (w/v) TCA (final concentration, 10% TCA) and incubated for 60 minutes at 4° C. The supernatant is discarded, and the plates are washed five times with tap water and air dried. Sulforhodamine B (SRB) solution (100 l) at 0.4% (w/v) in 1% acetic acid is added to each well, and plates are incubated for 10 minutes at room temperature. After staining, unbound dye is removed by washing five times with 1% acetic acid and the plates are air dried. Bound stain is subsequently solubilized with 10 mM trizma base, and the absorbance is read on an automated plate reader at a wavelength of 515 nm. For suspension cells, the methodology is the same except that the assay is terminated by fixing settled cells at the bottom of the wells by gently adding 50 μl of 80% TCA (final concentration, 16% TCA).

Assay [2] has as its target ABL1 (Homo sapiens, UniProt P00519). Briefly: Tyrosine kinase inhibition assay. The following applies: single concentration 1.0 μM, read-out: percent inhibition. In kind it is biochemical. Here is the method: (§2) Tyrosine kinase inhibition assays were performed at ThermoFisher Life Technologies (Madison, WI, USA) using standard protocols (SelectScreen Biochemical Profiling Service, Thermo Fisher Scientific). ATP concentrations used were at the apparent Km. Test compounds were screened in 1% dimethylsulffoxide (DMSO) (final concentration) in the well. For 10-point titrations, 3-fold serial dilutions were conducted from the starting concentration of […]. All Peptide/Kinase Mixtures were diluted to a 2× working concentration in the appropriate Kinase Buffer. All ATP Solutions were diluted to a 4× working concentration in Kinase Buffer (50 mM HEPES pH 7.5, 0.01% BRIJ-35, 10 mM MgCl2, 1 mM EGTA). The apparent ATP Km was previously determined using a Z′-LYTE assay. The Development Reagent was diluted in Development Buffer.
(§3) The inhibition activities of compounds were determined in biochemical assays using single concentration (1.0 μM) measurements. The results were provided as percent inhibition values. […] 99 different tyrosine kinases were used.

For assay [3], the target named is T1, EPHB2 (Homo sapiens, UniProt P29323).
T1 sequence (P29323 19-1055): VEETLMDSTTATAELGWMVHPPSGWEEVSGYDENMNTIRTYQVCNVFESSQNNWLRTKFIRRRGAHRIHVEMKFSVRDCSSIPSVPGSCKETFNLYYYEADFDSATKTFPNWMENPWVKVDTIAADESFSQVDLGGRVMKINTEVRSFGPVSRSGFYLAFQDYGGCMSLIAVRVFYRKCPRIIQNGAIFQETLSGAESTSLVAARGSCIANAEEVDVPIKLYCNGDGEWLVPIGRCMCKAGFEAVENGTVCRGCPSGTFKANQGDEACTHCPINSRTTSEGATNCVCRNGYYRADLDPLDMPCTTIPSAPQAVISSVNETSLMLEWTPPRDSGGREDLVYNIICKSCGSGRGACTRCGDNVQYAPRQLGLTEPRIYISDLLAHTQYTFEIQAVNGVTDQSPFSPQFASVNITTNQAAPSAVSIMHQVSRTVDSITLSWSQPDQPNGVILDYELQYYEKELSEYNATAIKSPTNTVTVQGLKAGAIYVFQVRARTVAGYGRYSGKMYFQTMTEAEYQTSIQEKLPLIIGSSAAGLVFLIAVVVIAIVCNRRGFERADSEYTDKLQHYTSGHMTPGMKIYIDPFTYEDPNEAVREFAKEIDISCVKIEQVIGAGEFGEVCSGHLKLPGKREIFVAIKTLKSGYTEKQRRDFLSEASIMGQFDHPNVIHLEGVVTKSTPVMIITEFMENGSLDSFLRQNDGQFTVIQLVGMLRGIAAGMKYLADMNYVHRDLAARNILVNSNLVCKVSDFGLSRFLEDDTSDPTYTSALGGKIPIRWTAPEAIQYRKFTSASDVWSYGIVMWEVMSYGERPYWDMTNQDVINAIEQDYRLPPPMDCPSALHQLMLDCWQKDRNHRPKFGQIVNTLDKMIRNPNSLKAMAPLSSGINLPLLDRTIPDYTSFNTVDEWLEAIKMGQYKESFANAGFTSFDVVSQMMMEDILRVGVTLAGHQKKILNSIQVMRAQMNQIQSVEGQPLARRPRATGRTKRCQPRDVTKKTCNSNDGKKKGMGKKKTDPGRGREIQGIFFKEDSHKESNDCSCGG
The assay can be described thus: Tyrosine kinase inhibition assay. In kind it is biochemical. Particulars: single concentration 1.0 μM, read-out: percent inhibition. On the procedure:
as §2, §3

Assay [4] relates to SNB-75. Briefly: NCI-60 screen (SRB). Particulars: Homo sapiens; SNB-75, CNS Cancer. In kind it is cell-based. On the procedure:
as §1

Where only a bound is given, the exact number is not on record here.

ABL1, sequence (P00519 whole entry): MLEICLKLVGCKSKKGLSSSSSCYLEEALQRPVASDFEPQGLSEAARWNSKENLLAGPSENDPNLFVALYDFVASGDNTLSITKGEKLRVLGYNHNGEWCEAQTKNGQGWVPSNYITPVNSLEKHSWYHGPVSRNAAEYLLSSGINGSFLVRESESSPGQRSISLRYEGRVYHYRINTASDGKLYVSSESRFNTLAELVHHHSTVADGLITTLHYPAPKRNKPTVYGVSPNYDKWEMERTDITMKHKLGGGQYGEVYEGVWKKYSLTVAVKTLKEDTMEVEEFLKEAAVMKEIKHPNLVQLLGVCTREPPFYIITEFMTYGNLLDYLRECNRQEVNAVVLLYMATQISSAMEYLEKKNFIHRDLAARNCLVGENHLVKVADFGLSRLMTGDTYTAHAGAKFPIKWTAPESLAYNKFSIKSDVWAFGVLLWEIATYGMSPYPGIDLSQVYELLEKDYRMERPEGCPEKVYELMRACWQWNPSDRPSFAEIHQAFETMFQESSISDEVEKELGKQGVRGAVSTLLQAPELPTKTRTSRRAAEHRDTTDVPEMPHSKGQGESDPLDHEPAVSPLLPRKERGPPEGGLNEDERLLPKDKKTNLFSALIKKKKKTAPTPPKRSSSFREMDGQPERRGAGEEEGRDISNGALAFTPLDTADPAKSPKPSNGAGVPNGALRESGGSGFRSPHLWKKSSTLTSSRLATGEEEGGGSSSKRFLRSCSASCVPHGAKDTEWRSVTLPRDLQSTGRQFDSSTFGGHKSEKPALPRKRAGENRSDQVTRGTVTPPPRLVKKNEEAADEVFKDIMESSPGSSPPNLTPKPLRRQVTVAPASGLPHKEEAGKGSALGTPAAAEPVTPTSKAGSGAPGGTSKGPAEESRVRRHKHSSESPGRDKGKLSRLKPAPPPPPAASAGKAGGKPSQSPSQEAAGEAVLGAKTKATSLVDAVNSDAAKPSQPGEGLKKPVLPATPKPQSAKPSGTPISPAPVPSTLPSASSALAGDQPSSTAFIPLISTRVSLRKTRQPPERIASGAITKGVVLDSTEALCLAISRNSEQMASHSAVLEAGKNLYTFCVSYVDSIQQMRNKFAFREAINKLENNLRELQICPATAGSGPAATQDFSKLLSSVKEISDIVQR

By GI50 is commonly meant the concentration at which growth is held to half of that of the control. A higher GI50 goes with less potent growth inhibition. A word on the inhibition: it is the share of the control response that was lost under treatment. In turn, `COc1cc2nccc(Oc3ccc(NC(=O)C4(NC(=O)c5ccc(F)cc5)CC4)cc3F)c2cc1OC` [Cbo-02, N-(1-((4-((6,7-diMethoxyquinolin-4-yl)oxy)-3-fluorophenyl)carbamoyl)cyclopropyl)-4-fluorobenzamide] had a GI50 in assay [1] of 4570 nM. For the same compound, the figures for the inhibition at 1 µM in assay [2] and in assay [3] were 24% and 13%, respectively.

With `COc1cc2nccc(Oc3ccc(NC(=O)C4(NC(=O)c5ccc(F)cc5)CC4)cc3F)c2cc1Oc1ccc(N)cc1F` [Cbo-10], the concentration for 50% growth inhibition (GI50) in assay [1] is 2990 nM; in assay [4], over 100000 nM. The results for the inhibition at 1 µM in assay [2] and in assay [3] were 32% and 64%, respectively.

As to `COc1cc2nccc(Oc3ccc(NC(=O)C4(NC(=O)c5ccc(F)cc5)CC4)cc3F)c2cc1Oc1c(F)cc(N)cc1F` [Cbo-14], the inhibition at 1 µM in assay [2] came out at 44%; in assay [3], 77%.

In assay [4], `COc1cc2nccc(Oc3ccc(NC(=O)C4(C(=O)Nc5ccc(F)cc5)CC4)cc3F)c2cc1Oc1ccc(N)cc1F` [Cbo-23] showed a concentration for 50% growth inhibition (GI50) of 178 nM. In addition, the figures for the inhibition at 1 µM in assay [2] and in assay [3] were 58% and 100%, respectively.
